The record followed here is patent US4918012A (Kyowa Hakko Kogyo Co., Ltd., priority 1986, dated 1990).

The test system of one experiment is strain CA28-50A. The experiment is described as follows: Effect of compound added to growth medium on carnitinamide hydrolase formation (Example 9). Type of experiment: cell-based, Pseudomonas sp. CA28-50A. To be noted: 26° C.; for Conversion Rate of L-carnitinamide into L-carnitine: cells reacted with 10% DL-carnitinamide, 96 hours; for Growth (optical density at 660, 1.00 cm, 20 times dilution): strain CA28-50A, 3 days. The procedure:
In a medium consisting of 1% glucose, 0.5% peptone, 0.75% K2 HPO4, 0.25% KH2 PO4, 0.01% MgSO4.7H2 O, 0.001% FeSO4.7H2 O and one of the compounds shown in Table 6 below and the balance water (pH 7.2) was inoculated the strain CA28-50A and shake cultured at 26° C. for 3 days. Cells collected from the culture broth by centrifugation were suspended in a reaction solution containing 10% DL-carnitinamide in the same density as that in the medium for growth culture, and the resulting suspension was allowed to stand at 26° C. for 96 hours for the reaction.

Experiment [1] concerns L-carnitinamide hydrolase. The experiment is described as follows: Inhibitors of L-carnitinamide hydrolase (metal ions, EDTA, 2-mercaptoethanol). Type of experiment: biochemical, Pseudomonas sp.
Excerpt: The determination of the activity of carnitinamide hydrolase can be carried out by measuring the amount of carnitine generated by, for example, Pearson's method (D. J. Pearson et al., Method in Enzymology, Vol. 14, 612 (1969)). When there is no inhibitory substances present, the determination of the activity of the enzyme can also be carried out by measuring the amount of ammonia generated by the reaction.

For `C[N+](C)(C)CC(O)CC(N)=O` (racemic) [DL-Carnitinamide], in the experiment on strain CA28-50A (compound 0.5% in growth medium), the “Conversion Rate of L-carnitinamide into L-carnitine” value (“Conversion Rate” for short) was found to be 88.7% and the “Growth (optical density at 660, 1.00 cm, 20 times dilution)” value (shortened to “Growth”) was 0.27.
For `C[N+](C)(C)CC(O)CC(=O)[O-]` (racemic) [DL-Carnitine], in the experiment on strain CA28-50A (compound 0.5% in growth medium), the “Conversion Rate” value is 90.0% and the “Growth” value is 0.27.
As for `OCCS` [2-mercaptoethanol], the “Inhibition of the enzyme” value in experiment [1] (at 10 mM) and in experiment [1] (concentration of 1 mM) was “do not show inhibition” each time.
Regarding `[Ag+]` [Ag ion], the entries for the “Inhibition of the enzyme” value in experiment [1] (at 10 mM) and in experiment [1] (concentration of 1 mM) were “remarkable inhibition” and “slight inhibition”, respectively.
Consider `[Co+2]` [Co], for which the “Inhibition of the enzyme” value in experiment [1] (concentration of 1 mM) is “no inhibition”.
As for `O=C(O)CN(CCN(CC(=O)O)CC(=O)O)CC(=O)O` [EDTA], the “Inhibition of the enzyme” value in experiment [1] (at 10 mM) and in experiment [1] (concentration of 1 mM) was “do not show inhibition” each time.
As to `[Mg+2]` [Mg], in experiment [1] (concentration of 1 mM), the “Inhibition of the enzyme” value is “no inhibition”.
Regarding `[Mn+2]` [Mn], the “Inhibition of the enzyme” value in experiment [1] (concentration of 1 mM) is listed as “no inhibition”.
`Cl.N` [NH4 Cl]: in the experiment with strain CA28-50A (compound 0.1% in growth medium), the “Conversion Rate” value turned out to be 2.9% and the “Growth” value is 0.23.
For `[Ni+2]` [Ni], the “Inhibition of the enzyme” value in experiment [1] (at 10 mM) is on record as “slight inhibition”; in experiment [1] (concentration of 1 mM), “no inhibition”.
In the case of `[Zn+2]` [Zn], the “Inhibition of the enzyme” value in experiment [1] (concentration of 1 mM) is recorded as “no inhibition”.
As for `C[N+](C)(C)CCCC(=O)[O-]` [γ-Butyrobetaine], in the experiment with strain CA28-50A (compound 0.5% in growth medium), the “Conversion Rate” value was found to be 12.3% and the “Growth” value is on record as 0.26.
